GI50 and TGI data for two compounds are collected here from PubChem BioAssay (NCI).

Common to all, as to assay: NCI anticancer screen, dose series, 48 h
In test [1] the test system is NCI-H226 lung.
Test [2] concerns HCC-2998 colon.
For test [3], the system named is TK-10 renal.
The test system of test [4] is HT29 colon.
Test [5] has as its system M14 melanoma.
The subject of test [6] is RPMI-8226 leukemia.
Test [7] deals with KM12 colon.
Test [8] relates to U251 CNS.
Test [9] deals with OVCAR-5 ovarian.
The test system of test [10] is NCI-H23 lung.

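Grown in 96-well plates, cells were treated for 48 hours with each compound at five concentrations. Insufficient inhibition: endpoint recorded as highest concentration tested. GI50 = concentration required for 50% inhibition of growth. TGI: total growth inhibition.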

Turning to `Cc1ccc2c(c1)nc(C(=O)c1ccco1)c(C(F)(F)F)[n+]2[O-]`, the GI50 in test [1] was over 100 µM; in [2], over 100 µM; in [3], over 100 µM; in test [4], over 100 µM; in [5], over 100 µM; in [6] it was 64.6 µM. Besides, the GI50 in test [7] was over 100 µM; in [8], over 100 µM; in test [9], over 100 µM; in [10] it was 91.8 µM. Further, the TGI in test [1], in [2], in [3], in test [4], in test [5] and in [6] was over 100 µM each time. Moreover, the TGI in [7], in test [8], in test [9] and in test [10] was over 100 µM in each case.
With `CCCCCCCCCCCCCCCCCC(=O)OCC(CN(C)CCN(C)C)OC(=O)CCCCCCCCCCCCCCCCC` (stereo not given), the TGI in test [1], in [2], in test [3], in test [4], in [5] and in test [6] was over 100 µM throughout. Further, the TGI in test [7], in test [8], in test [9] and in test [10] was over 100 µM throughout.
